Results on 1 molecule are retold here after US20250041286A1, “CANCER TREATMENT USING KETOTIFEN IN COMBINATION WITH A CHECKPOINT INHIBITOR” (Materia Therapeutics Inc., priority 2021, published 2025).

Entries after “also recorded” stand apart in the source; their conditions may differ.

Data set [1] deals with K7M2wt tumors. Briefly: Immunofluorescence of T cells (CD3, CD8/Ki67, CD3/CD31) in tumor sections. Format: in vivo, mouse. The note with it: Ki67/CD8 staining; concluding statement. From the text: Immunofluorescence staining for Ki67 and CD8, performed as described above, confirmed the activation status of recruited CD8^+ T cells in osteosarcoma tumors (K7M2wt tumors) (FIGS. 9C-9D). K7M2wt tissue sections were then stained for pimonidazole adducts as a measure of hypoxia formation.
Immunofluorescence staining of CD3 and CD31 endothelial marker was used to assess the presence of T cells in the proximity of tumor vessel capillaries. PFA-fixed tissue cryosections of K7M2wt osteosarcoma tumors were incubated with primary rabbit anti-CD31 (Abcam, 1:50) and rat anti-CD3 (BioLegend, 1:50) overnight at 4° C. CD31 signal was detected with Alexa Fluor-488 anti-rabbit IgG (H+L) (Invitrogen, 1:400) and CD3 signal with Alexa Fluor-647 anti-rat IgG (H+L) (Invitrogen, 1:400) secondary antibodies. Cell nuclei were stained with DAPI. Tumor associated T cell to vessel content was determined by the overlapping CD31 and CD3 area fraction normalized to DAPI staining.

Data set [2] concerns MCA205 tumors. Briefly: Hypoxia study, pimonidazole adduct immunofluorescence. Type of data set: in vivo, mouse. The protocol:
Mice bearing orthotopic MCA205 or K7M2wt sarcoma tumors were injected (intraperitoneal) with 60 mg/kg of pimonidazole HCl at 2 hours prior to tumor removal. Tumors were removed, washed twice in 1×PBS for 10 minutes and incubated with 4% PFA overnight at 4° C. The fixative was aspirated, and samples were washed twice in 1×PBS for 10 min. Tissue samples were dehydrated in successive ethanol steps and xylene followed by paraffin embedding. Serial sections ([…]) of paraffin-embedded tissues were produced using the microtome (Accu-Cut SRM 200 Rotary Microtome, SAKURA), flattened out into water, and allowed to dry overnight at 37° C. Sections were then deparaffinized and rehydrated as routinely processed for histology. Slides were microwaved in TriSodium Citrate, blocked in serum solution, and incubated with mouse anti-pimonidazole RED 549 conjugate antibody (HP7-100Kit, 1:100) overnight at 4° C. The next day slides were washed, nuclei were stained with DAPI, and tissue sections were mounted. Immunofluorescence images of the slides were taken (FIG. 1A), and hypoxic area fraction across different treatment groups was normalized to DAPI staining.

The test system of data set [3] is K7M2wt tumors. Kind of data set: Atomic force microscopy (AFM) elastic modulus of tumor samples ex vivo. Type of data set: in vivo, mouse. The settings on record: ketotifen-treated K7M2wt tumors, microscopic scale. How it is done: Following the confirmation of the presence of MCs in human sarcoma samples and the in vitro characterization of the MC-fibroblast interaction, it was assessed whether inhibition of MC degranulation would reduce fibrosis in murine sarcoma models. The impact of MC degranulation by treating MCA205 fibrosarcoma and K7M2wt osteosarcoma tumors with ketotifen was assessed. Ketotifen was administered in four different doses (1, 5, 10, and 25 mg/kg), once a day by i.p. injection for a period of 8 days (as shown in FIG. 4A). […] The effect of ketotifen on tumor stiffness in vivo was monitored using shear wave elastography (SWE). SWE measurements were performed before, after 3 days (for MCA205) or 4 days (for K7M2wt) of ketotifen treatment and upon study completion. […] The pertinent reduction in tumor stiffness was further validated ex vivo at the microscopic tissue scale using atomic force microscopy (AFM) of tumor samples. […] In FIG. 19B, the left peak of lower elastic modulus corresponds to compliant cancer cells, while the tail of higher elastic modulus (dashed rectangles) represents the contribution of the stiffer matrix components, mainly collagen. Data are presented as mean±SE. Statistical analyses were performed by comparing means between two independent groups using the ordinary one-way ANOVA test.

A further data set relates to NIH3T3 cells. Briefly: NIH3T3 cell viability assessment. Format: cell-based, murine. The settings on record: ketotifen or control for 2 or 24 hours.
In data set [4] the test system is K7M2wt tumors. Kind of data set: qPCR mRNA expression levels in tumors. Format: in vivo, mouse. The settings on record: 10 mg/kg ketotifen, compared with the effect in MCA205. The protocol: Total RNA was isolated from breast tumors according to the standard Trizol-based protocol (Invitrogen), and cDNA synthesis was performed using reverse transcriptase III (RT-III) enzyme and random hexamers (Invitrogen). Real-time polymerase chain reaction was performed using Sybr Fast Universal Master Mix (KAPA). Reactions were performed using a CFX-96 real-time PCR detection system (BioRad) at the following conditions: 95° C. for 2 minutes, 95° C. for 2 seconds, 60° C. for 20 seconds, 60° C. for 1 second, steps 2-4 for 39 cycles. Real-time PCR analysis and calculation of changes in gene expression between compared groups was performed using the ΔΔ^Ct method. Relative gene expression was normalized based on the expression of β-actin. For qPCR analysis, 3-5 biological samples were used per treatment and 3 technical replicates for each sample.
mRNA expression levels were evaluated in both mouse sarcoma models by qPCR, as described above.
For orientation: In qPCR the cycle at which signal appears reflects the starting amount.

Data set [5] deals with K7M2wt tumors. Briefly: Proliferation of CAFs, α-SMA / Ki-67 immunostaining. Type of data set: in vivo, mouse. The settings on record: 10 mg/kg ketotifen. How it is done:
(§1) Proliferation of CAFs was evaluated by immunostaining for the presence of alpha-smooth muscle actin (α-SMA) (ab5694, Abcam; diluted 1:50) protein and Ki-67 (Abcam; diluted 1:200) proliferation marker following antigen retrieval, 1 hour incubation in serum solution (10% FBS, 3% donkey serum in 1×PBS), and 1 hour incubation in blocking solution for endogenous mouse IgG (Abcam; diluted 1:100). Following washes with TBS-T (0.25% Tween-20), Alexa Fluor-647 anti-rabbit IgG (H+L) (Invitrogen; diluted 1:400) and Fluor-488 anti-rat IgG (H+L) (Invitrogen; diluted 1:400) secondary antibodies and DAPR (Sigma diluted 1:100 of 1 mg/mL stock) were applied for 1 hour at room temperature. Sections were then mounted on microscope slides using the ProLong gold antifade mountant (Invitrogen) and covered with a glass coverslip. CAF proliferation fraction was detected as the ratio of overlapping α-SMA (green) and Ki67 (red) positive signal to total CAF signal (α-SMA^+), indicating CAFs.

Data set [6] concerns MCA205 tumors. The data set is described as above. Format: in vivo, mouse. The settings on record: 10 mg/kg ketotifen. How it is done: as §1

As to `CN1CCC(=C2c3ccccc3CC(=O)c3sccc32)CC1` [ketotifen], the “fraction of CD8+ T cells proliferating” value in the data set on K7M2wt tumors [1] is listed as “double”. The “pimonidazole positive fraction (hypoxia)” value in the data set on MCA205 tumors [2] (1 mg/kg, 5 mg/kg and 25 mg/kg ketotifen) is listed as “prominent”; in the data set with MCA205 tumors [2] (10 mg/kg ketotifen, MCA205), “significantly reduced; also recorded: alleviated hypoxia”. The “average value of elastic modulus by AFM” value with K7M2wt tumors [3] is reported as “reduction”. Further, the NIH3T3 cell viability result in the data set with NIH3T3 cells was “did not significantly reduce”. Besides, the “mRNA levels of Col1A1, CTGF, Has2, Has3” value in the data set on K7M2wt tumors [4] is “A similar effect was observed”. Moreover, the “CAF levels and proliferation activity (α-SMA, Ki-67)” value in the data set on K7M2wt tumors [5] and in the data set on MCA205 tumors [6] was “decrease” in each case.
